The results in this text go back to ChEMBL document CHEMBL2417471, “Synthesis and biological activity of (24E)- and (24Z)-26-hydroxydesmosterol” (Bioorg Med Chem, 2013).

Active and inactive are the calls of the source. The calls are words filed in the database; no cut-off is given here.

What all share (type): cell-based
The target in experiment [1] is T1, Oxysterols receptor LXR-beta (Homo sapiens) (UniProt P55055).
T1 sequence (whole entry): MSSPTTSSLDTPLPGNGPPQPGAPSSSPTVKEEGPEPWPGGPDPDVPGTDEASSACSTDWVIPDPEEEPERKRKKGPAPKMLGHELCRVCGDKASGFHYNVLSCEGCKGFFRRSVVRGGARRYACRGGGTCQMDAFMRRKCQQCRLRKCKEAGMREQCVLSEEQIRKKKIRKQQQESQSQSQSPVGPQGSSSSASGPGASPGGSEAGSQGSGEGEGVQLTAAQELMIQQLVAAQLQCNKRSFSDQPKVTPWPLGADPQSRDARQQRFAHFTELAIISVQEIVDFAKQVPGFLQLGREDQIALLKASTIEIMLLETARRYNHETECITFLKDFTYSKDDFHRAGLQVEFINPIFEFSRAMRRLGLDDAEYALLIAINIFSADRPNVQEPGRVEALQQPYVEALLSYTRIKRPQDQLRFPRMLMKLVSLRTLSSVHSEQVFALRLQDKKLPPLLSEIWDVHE
Description: Agonist activity at LXRbeta (unknown origin) transfected in mouse SN4741 cells at 10 uM after 24 hrs by luciferase reporter gene assay.

Experiment [2] deals with T2, Oxysterols receptor LXR-alpha (Homo sapiens) (UniProt Q13133).
T2 sequence (whole entry): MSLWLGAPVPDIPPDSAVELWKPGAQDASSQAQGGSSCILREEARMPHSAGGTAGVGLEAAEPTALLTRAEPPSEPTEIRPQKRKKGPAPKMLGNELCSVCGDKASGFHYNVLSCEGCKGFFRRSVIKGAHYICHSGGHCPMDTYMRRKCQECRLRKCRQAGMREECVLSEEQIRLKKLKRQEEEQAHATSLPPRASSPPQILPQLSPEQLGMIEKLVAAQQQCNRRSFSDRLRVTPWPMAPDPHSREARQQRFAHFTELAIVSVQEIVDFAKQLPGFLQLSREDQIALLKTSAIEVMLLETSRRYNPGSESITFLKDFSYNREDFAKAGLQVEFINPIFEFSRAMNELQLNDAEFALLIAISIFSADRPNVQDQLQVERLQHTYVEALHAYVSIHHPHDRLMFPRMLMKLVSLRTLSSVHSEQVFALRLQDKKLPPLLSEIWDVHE
Description: Agonist activity at LXRalpha (unknown origin) transfected in mouse SN4741 cells at 10 uM after 24 hrs by luciferase reporter gene assay.

In the next experiment the test system is SN4741. Description: Agonist activity at LXR in mouse SN4741 cells assessed as upregulation of ABCA1 protein expression at 10 uM by immunoblot analysis.

For `C/C(=C\CC[C@@H](C)[C@H]1CC[C@H]2[C@@H]3CC=C4C[C@@H](O)CC[C@]4(C)[C@H]3CC[C@]12C)CO`, the result (in experiment [1]; in experiment [2]; in the experiment with SN4741) was inactive.

Turning to `C/C(=C/CC[C@@H](C)[C@H]1CC[C@H]2[C@@H]3CC=C4C[C@@H](O)CC[C@]4(C)[C@H]3CC[C@]12C)CO`, the result (in experiment [1]; in experiment [2]; in the experiment with SN4741) was inactive.

`CC(C)=CCC[C@@H](C)[C@H]1CC[C@H]2[C@@H]3CC=C4C[C@@H](O)CC[C@]4(C)[C@H]3CC[C@]12C`: the outcome (in experiment [1]; in experiment [2]; with SN4741) was Active.
